Assay results reported in patent US11911353B2, “Fatty acid synthase inhibitor and application thereof” (Jiangnan University, priority 2019, dated 2024).

Experiments:
Type in all cases: cell-based
[1] = target: T1, fatty acid synthase (FASN) in colon cancer cells HCT116 (Homo sapiens, UniProt P49327); assay: FASN enzyme activity detection in treated HCT116 cells (NADPH absorbance at 340 nm); settings: HCT-116, 4 hours of incubation, read-out: FASN enzyme activity inhibition rate (%)
T1 construct: endogenous in cells; host or cells: HCT116 colon cancer cells

[2] = test system: prostate cancer cells PC-3; assay: MTT tumor proliferation IC50, PC-3; settings: 72 hours of incubation
From the text: IC50 (half maximal inhibitory concentration) refers to the half inhibitory concentration of a measured antagonist. It can indicate that a certain concentration of a certain drug or substance (inhibitor) induces tumor cell apoptosis by 50%, and this concentration is referred to as 50% inhibitory concentration, namely, the corresponding concentration when the ratio of apoptotic cells to the total number of cells is equal to 50%. The IC50 value can be used to measure the ability of a drug to induce apoptosis, that is, the higher the inducing ability, the lower the value, which also can indicate the tolerance degree of a certain cell to a drug on the contrary. • (1) Cells in the logarithmic phase are collected, the concentration of a cell suspension is adjusted, it is appropriate to place 100 μl cells in each well of a 96-well plate, the cells are inoculated into the plate to adjust the density of to-be-detected cells to be 1000-10000 cells/well, and edge wells are filled with sterile PBS. • (2) The cells are incubated under 5% CO2 at 37° C., an original culture medium is discarded after complete cell adherence, 200 μl of 1 wt % FBS culture medium containing 0.01 μM, 0.1 μM, 1 μM, 5 μM and 10 μM compound I-1 or cerulenin is added into each well, and there are 6 wells run in duplicate. An equal volume of DMSO is added as a negative control. • (3) After 72 hours of incubation, the cells are photographed for state recording, an original culture medium is discarded, and 100 μl of serum-free culture medium containing 0.5 mg/ml MTT (3-(4,5-dimethylthiazole-2)-2,5-diphenyltetrazolium bromide, trade name thiazolyl blue) is added into each well. • (4) After 2-4 hours of incubation, an original culture medium is discarded, and 150 μl of dimethyl sulfoxide (DMSO) is added into each well and shaken at 300 rpm for 10 minutes to fully dissolve purple crystals. • (5) The absorbance of each well at OD570 nm is measured by an enzyme-linked immunodetection instrument, the absorbance at OD630 nm is used as a reference, dual-wavelength measurement is carried out, and survival rate results are calculated according to the following formula: Cell survival rate=(OD570−OD630)/(OD570 negative control−OD630 negative control);
wherein, OD570: OD570 value of each treatment group; OD630: OD630 value of each treatment group; OD570 control: OD570 value of the negative control group; OD630 control: OD630 value of the negative control group. • (6) The survival rate results are processed with graphpad 6.0 software according to the concentration gradient, the analysis mode is log (inhibitor) vs. Nonlinear regression (curve fit), and the calculated IC50 value is expressed as x+/−SD.
The FASN enzyme activity measurement method shown in Experimental Example 18 is used to detect the effects of different substances on FASN enzyme activity. The method shown in Experimental Example 19 is used to detect the effects of different substances on the proliferation of tumor cells, cerulenin is used as a control, and the inhibition rates (%) of different substances on FASN enzyme activity and inhibition rates (IC50 nM) on tumor proliferation are calculated.

[3] = test system: prostate cancer cells PC3; assay: Cell division of PC3 cells, CFSE flow cytometry (FIG. 4); settings: 10 μM, 24 hours, versus cells without compound
From the text: […]

[4] = test system: preadipocytes OP9; assay: Lipid droplet formation in preadipocytes OP9, oil red O staining (FIG. 6); settings: 20 μM, differentiation with 1 μM rosiglitazone, OD510
Method: The effect of the compound shown as the formula I-1 on preadipocytes OP9 is detected: • (1) The cancer cells in the logarithmic growth phase are taken and inoculated into a 6 cm culture dish with the inoculation density of 2*10^6 cells, and incubated under 5% CO2 at 37° C. • (2) After cell adherence, 6 ml of 10% FBS culture medium containing 20 μM of the compound shown as the formula I is added into each dish with the culture medium as a negative control; cerulenin as a positive control; and 1 μM rosiglitazone (RSG) is used for differentiation. • (3) To observe the formation of lipid droplets, cells were incubated with 4% paraformaldehyde solution for 30 min at room temperature, washed with phosphate-buffered saline (PBS), and then stained with 0.5% oil red O in 60% isopropanol. • (4) After washing with distilled water, the stained cells were observed through a microscope, and then oil red O was extracted with isopropanol for quantification. This quantification was performed by measuring the absorbance of isopropanol solutions of oil red O at 510 nm.

T1 sequence (P49327 whole entry): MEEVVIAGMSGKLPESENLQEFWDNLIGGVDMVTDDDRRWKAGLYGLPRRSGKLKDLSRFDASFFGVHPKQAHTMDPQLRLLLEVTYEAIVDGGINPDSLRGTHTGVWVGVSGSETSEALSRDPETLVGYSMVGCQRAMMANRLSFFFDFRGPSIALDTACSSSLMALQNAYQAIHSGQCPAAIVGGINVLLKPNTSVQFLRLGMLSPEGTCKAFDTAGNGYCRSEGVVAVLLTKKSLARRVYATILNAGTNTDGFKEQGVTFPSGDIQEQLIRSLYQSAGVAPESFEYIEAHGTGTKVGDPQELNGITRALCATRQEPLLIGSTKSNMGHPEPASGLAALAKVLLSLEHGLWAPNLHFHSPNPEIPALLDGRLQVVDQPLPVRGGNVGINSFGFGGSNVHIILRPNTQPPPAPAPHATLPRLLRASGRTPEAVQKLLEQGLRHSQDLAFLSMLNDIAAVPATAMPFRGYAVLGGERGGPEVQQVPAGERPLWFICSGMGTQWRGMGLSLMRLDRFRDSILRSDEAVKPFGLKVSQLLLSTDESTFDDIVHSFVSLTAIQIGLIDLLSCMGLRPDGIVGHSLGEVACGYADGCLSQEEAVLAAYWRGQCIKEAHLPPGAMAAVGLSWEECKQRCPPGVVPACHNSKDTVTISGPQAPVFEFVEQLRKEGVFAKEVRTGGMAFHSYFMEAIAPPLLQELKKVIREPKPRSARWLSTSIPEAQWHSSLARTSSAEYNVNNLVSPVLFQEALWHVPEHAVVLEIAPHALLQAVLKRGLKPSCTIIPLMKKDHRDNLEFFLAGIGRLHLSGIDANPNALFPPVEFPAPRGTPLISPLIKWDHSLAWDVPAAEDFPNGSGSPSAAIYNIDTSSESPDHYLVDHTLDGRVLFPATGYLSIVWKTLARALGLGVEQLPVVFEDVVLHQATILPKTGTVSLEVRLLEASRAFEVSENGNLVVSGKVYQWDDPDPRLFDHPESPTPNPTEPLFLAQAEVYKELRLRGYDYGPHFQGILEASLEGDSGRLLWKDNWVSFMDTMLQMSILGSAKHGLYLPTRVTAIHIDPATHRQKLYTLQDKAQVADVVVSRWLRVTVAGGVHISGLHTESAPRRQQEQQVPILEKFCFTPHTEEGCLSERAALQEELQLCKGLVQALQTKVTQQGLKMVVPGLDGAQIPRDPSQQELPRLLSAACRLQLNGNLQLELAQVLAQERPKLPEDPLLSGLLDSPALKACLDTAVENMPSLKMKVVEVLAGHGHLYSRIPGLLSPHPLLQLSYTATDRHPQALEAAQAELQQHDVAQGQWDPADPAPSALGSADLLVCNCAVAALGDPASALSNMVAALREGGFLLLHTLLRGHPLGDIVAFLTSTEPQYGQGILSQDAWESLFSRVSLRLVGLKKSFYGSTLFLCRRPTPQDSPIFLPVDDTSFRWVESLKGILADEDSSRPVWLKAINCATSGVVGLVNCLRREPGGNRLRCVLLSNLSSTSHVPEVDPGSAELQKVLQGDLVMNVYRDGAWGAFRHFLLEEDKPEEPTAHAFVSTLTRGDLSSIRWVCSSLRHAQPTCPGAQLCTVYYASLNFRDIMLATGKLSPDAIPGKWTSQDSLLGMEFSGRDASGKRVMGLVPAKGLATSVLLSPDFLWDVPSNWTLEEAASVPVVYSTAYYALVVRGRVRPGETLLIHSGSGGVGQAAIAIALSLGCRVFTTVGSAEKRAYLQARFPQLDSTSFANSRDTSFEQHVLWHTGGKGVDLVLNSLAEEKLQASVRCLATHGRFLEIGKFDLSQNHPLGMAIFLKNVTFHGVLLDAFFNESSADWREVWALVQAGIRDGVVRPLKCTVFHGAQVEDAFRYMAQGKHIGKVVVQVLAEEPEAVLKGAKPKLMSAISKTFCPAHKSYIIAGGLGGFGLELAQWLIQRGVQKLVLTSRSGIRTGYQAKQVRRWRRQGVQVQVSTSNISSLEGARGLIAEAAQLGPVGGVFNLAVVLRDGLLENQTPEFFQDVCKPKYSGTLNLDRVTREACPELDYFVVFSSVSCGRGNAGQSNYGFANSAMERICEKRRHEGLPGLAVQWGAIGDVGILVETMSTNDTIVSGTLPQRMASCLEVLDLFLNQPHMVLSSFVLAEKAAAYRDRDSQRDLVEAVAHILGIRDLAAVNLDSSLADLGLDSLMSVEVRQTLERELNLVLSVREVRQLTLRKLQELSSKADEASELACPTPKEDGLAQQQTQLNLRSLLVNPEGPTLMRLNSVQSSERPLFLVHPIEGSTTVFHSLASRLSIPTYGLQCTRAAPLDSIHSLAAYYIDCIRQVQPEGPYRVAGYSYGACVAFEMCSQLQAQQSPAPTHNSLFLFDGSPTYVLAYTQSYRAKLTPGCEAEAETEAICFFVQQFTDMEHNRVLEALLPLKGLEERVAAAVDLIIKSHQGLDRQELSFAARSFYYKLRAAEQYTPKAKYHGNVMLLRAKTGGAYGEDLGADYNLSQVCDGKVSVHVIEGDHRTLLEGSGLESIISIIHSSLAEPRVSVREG

inhibition at 20 µM [1]: 58.6%
IC50 [2]: 9 nM
Structure (SMILES): O=C(CCCC(=O)Nc1ccc(Br)cc1)N/N=C/c1cc(Br)ccc1O [Compound I-1]
split peak number (cell division) [3]: significantly reduced
number of lipid droplets in cells OP9 [4]: reduced significantly
